Where two headings read alike, the source gives them in different places.
Experiments:
HMEC (p53+) = assay: Crystal violet staining growth inhibition assay, median effect analysis; conditions: Homo sapiens, 24 h, read-out: IC50 HMEC (p53+)
MDA-231 (mutant p53) = assay: as above; conditions: Homo sapiens, MDA-MB-231, 24 h, read-out: IC50 MDA-231 (p53-)
[1] = test system: normal bovine venular endothelial cells (BVEC)
Procedure: Cell lines and Culture. […] Normal bovine venular endothelial cells (BVEC) were maintained in DMEM media (Gibco) supplemented with 1 mM sodium pyrovate (Gibco), and 20% bovine calf serum (Hyclone). Cell viability was determined using the trypan blue exclusion test. To ensure an exponential growth, cells were plated in fresh medium 24 h before each treatment.
Drug Treatment and Survival Curves. Cytotoxicity studies were initiated by plating 2×10^4 cells obtained from exponentially growing cultures in 24-well tissue culture plates (Coming-Costar, Cambridge Mass.) in the appropriate medium. Following 24 h incubation at 37° C., drugs were added to quadruplicate wells and incubated for 24 h, the wells were washed twice with prewarmed phosphate-buffered saline (PBS) and then incubated with drug-free medium for 2-3 doubling times.

GI 101A cells = assay: cells; assay type: cell-based, human
Text: (§1) . Cell lines and Culture.
(§2) Drugs and Chemical Reagents. […] . […] All other chemicals were reagent grade.
(§3) Drug Treatment and Survival Curves.
(§4) Pharmacol. 28:370-376 (1991). […] .
(§5) Drug Combinations and Data Analysis. […] . Pharmacol. (in press, 1997). […] Enzyme Regul. […] Enzyme Regul. 22:27-55 (1984).
(§6) . […] Enzyme Regul. 22:27-55 (1984).

MDA-231 cells = assay: cells; assay type: cell-based, human
Text: as §1, §2, §3, §4, §5, §6

[2] = test system: α1 -acid glycoprotein (AGP); conditions: cited from earlier work
[3] = Death of animals injected with UCN-01; conditions: i.m., doses higher than 5 mg/kg
[4] = UCN-01 pharmacokinetics in rats, effect of human AGP; assay type: in vivo, male Wistar rats; conditions: for half-life / clearance / Vd: 10 mg/kg; for half-life: range over the two groups (without and with 10 mg human AGP); for clearance: read-out: total body clearance (converted); for Vd: read-out: volume of distribution during the elimination phase
Text: Many basic drugs tend to bind in variable degrees to AGP (Knowlton, K. et al., "Bcl-2 slows in vitro breast cancer growth despite its antiapoptotic effect," J. Surg. Res. 76:22-26 (1998)). […] Thus monitoring changes in the pharmacokinetic drug concentrations in these pathological conditions is extremely important, since dosage adjustment would be considered. For our drug combination, this binding is of a crucial consequence since the attainable plasma and tumor concentrations may be questionable and plasma protein displacement interaction may occur and can lead to undesirable side effects. Thus the role of human α1 -acid glycoprotein (AGP) binding on UCN-01 disposition was determined. In this example, two groups of rats were prepared by cannulating the femoral vein and artery. The first group (n=6) received UCN-01 (10 mg/kg i.v.) by slow infusion over 1 min., while the second group (n=5) received UCN-01+10 mg human α1 -acid glycoprotein. Plasma samples were obtained over time (0-700 min), and were analyzed for UCN-01 by HPLC system (Shimazdu LC), detecting peaks using fluorescence detector (excitation=310 nm, emission=410).

[5] = Tissue distribution of UCN-01 in rats, effect of human AGP; assay type: in vivo, male Wistar rats; conditions: rat, iv, 10 mg/kg
Procedure: The role of human AGP binding on the tissue distribution of UCN-01. In this study, two groups of rats (n=3) were infused with bolus injection of either UCN-01 (10 mg/kg) or UCN-01+ human AGP (10 mg/kg +10 mg). On hour following drug administration, plasma samples as well as organ tissues (brain, muscle, kidneys, lungs, liver, heart and spleen) were collected. Tissues were digested and homogenized, protein was precipitated with cold ethanol/1% ascorbic acid, and the supernatant was extracted with chloroform. The organic phase was then dried under nitrogen, reconstituted in acetonitrile and analyzed by HPLC as mentioned above.

[6] = 72- or 3-h infusion, NCI Phase I; cited from earlier work
HMEC/E6 (p53-) = assay: Crystal violet staining growth inhibition assay, median effect analysis; assay type: cell-based; conditions: Homo sapiens, 24 hr treatment
Text: Cytotoxicity and Bromodeoxyuridine incorporation assays. […] Enzyme Regul.

[7] = rat, plasma, iv, UCN-01 10 mg/kg i.v. + 10 mg human AGP
[8] = rat, plasma, iv, UCN-01 10 mg/kg i.v. alone

CN[C@@H]1C[C@H]2O[C@@](C)([C@@H]1OC)n1c3ccccc3c3c4c(c5c6ccccc6n2c5c31)C(=O)N[C@@H]4O [UCN-01, 7-hydroxystaurosporine]
IC50 (HMEC (p53+)): 0.07 nM | IC50 (MDA-231 (mutant p53)): 49.6 nM | enhancement of CPT-induced cytotoxicity [1]: no enhancement of CPT-induced cytotoxicity | enhancement of CPT cytotoxicity (GI 101A cells): about 30 fold | enhancement of CPT cytotoxicity (MDA-231 cells): ~40 fold | binding to α1-acid glycoprotein [2]: high affinity binding | death of animals [3]: Death of animals injected with doses higher than 5 mg/kg was observed | duration of peak plasma concentration >100 nM ([4]; 10 mg/kg i.v., presence of human AGP): up to 300 min | half-life ([4]; rat, plasma, iv, 10 mg/kg i.v., read-out: t1/2α): 0.183 to 0.85 h | half-life ([4]; rat, plasma, iv, 10 mg/kg i.v., read-out: t1/2β): 6.65 to 6.95 h | clearance [4, 7]: 1.5 mL/min | Vd [4, 7]: 1.7 L/kg | clearance [4, 8]: 4.33 mL/min | Vd [4, 8]: 6.8 L/kg | Cmax ([4]; rat, plasma, iv, 10 mg/kg i.v., presence of human AGP, read-out: peak plasma concentration): > 100 nM | Kp at 1 h ([5]; all tissues, UCN-01, 1 h, read-out: tissue:plasma ratios, all tissues): 10 to 1190 | concentration at 1 h ([5]; brain, brain, UCN-01 10 mg/kg alone, 1 h, read-out: tissue concentration): 2450 ± 495 ng/g | Kp at 1 h ([5]; brain, brain, UCN-01 + human AGP, 1 h, read-out: Tissue/Plasma ratio): 0.6 ± 0.33 | concentration at 1 h ([5]; brain, brain, UCN-01 + human AGP, 1 h, read-out: tissue concentration): 1720 ± 78.4 ng/g | Kp at 1 h ([5]; brain, brain, UCN-01 alone, 1 h, read-out: Tissue/Plasma ratio): 10.5 ± 1.9 | concentration at 1 h ([5]; heart, heart, UCN-01 10 mg/kg alone, 1 h, read-out: tissue concentration): 19900 ± 9940 ng/g | Kp at 1 h ([5]; heart, heart, UCN-01 + human AGP, 1 h, read-out: Tissue/Plasma ratio): 3.5 ± 1.7 | concentration at 1 h ([5]; heart, heart, UCN-01 + human AGP, 1 h, read-out: tissue concentration): 10100 ± 4900 ng/g | Kp at 1 h ([5]; heart, heart, UCN-01 alone, 1 h, read-out: Tissue/Plasma ratio): 86.8 ± 41.7 | concentration at 1 h ([5]; kidney, kidney, UCN-01 10 mg/kg alone, 1 h, read-out: tissue concentration): 73200 ± 3050 ng/g | Kp at 1 h ([5]; kidney, kidney, UCN-01 + human AGP, 1 h, read-out: Tissue/Plasma ratio): 14 ± 5.6 | concentration at 1 h ([5]; kidney, kidney, UCN-01 + human AGP, 1 h, read-out: tissue concentration): 39400 ± 8510 ng/g | Kp at 1 h ([5]; kidney, kidney, UCN-01 alone, 1 h, read-out: Tissue/Plasma ratio): 298 ± 40 | concentration at 1 h ([5]; liver, liver, UCN-01 10 mg/kg alone, 1 h, read-out: tissue concentration): 42900 ± 3210 ng/g | Kp at 1 h ([5]; liver, liver, UCN-01 + human AGP, 1 h, read-out: Tissue/Plasma ratio): 11.3 ± 1.34 | concentration at 1 h ([5]; liver, liver, UCN-01 + human AGP, 1 h, read-out: tissue concentration): 30100 ± 2530 ng/g | Kp at 1 h ([5]; liver, liver, UCN-01 alone, 1 h, read-out: Tissue/Plasma ratio): 189 ± 131 | concentration at 1 h ([5]; lung, lung, UCN-01 10 mg/kg alone, 1 h, read-out: tissue concentration): 279000 ± 19600 ng/g | Kp at 1 h ([5]; lung, lung, UCN-01 + human AGP, 1 h, read-out: Tissue/Plasma ratio): 53.6 | concentration at 1 h ([5]; lung, lung, UCN-01 + human AGP, 1 h, read-out: tissue concentration): 141000 ± 12000 ng/g | Kp at 1 h ([5]; lung, lung, UCN-01 alone, 1 h, read-out: Tissue/Plasma ratio): 1190 ± 775 | concentration at 1 h ([5]; muscle, muscle, UCN-01 10 mg/kg alone, 1 h, read-out: tissue concentration): 11900 ± 783 ng/g | Kp at 1 h ([5]; muscle, muscle, UCN-01 + human AGP, 1 h, read-out: Tissue/Plasma ratio): 2.27 ± 1.11 | concentration at 1 h ([5]; muscle, muscle, UCN-01 + human AGP, 1 h, read-out: tissue concentration): 6590 ± 3060 ng/g | Kp at 1 h ([5]; muscle, muscle, UCN-01 alone, 1 h, read-out: Tissue/Plasma ratio): 60 ± 5.48 | concentration at 1 h ([5]; plasma, plasma, UCN-01 10 mg/kg + human AGP 10 mg, 1 h, mean ± SD, n=3, read-out: plasma concentration): 2960 ± 250 ng/mL | concentration at 1 h ([5]; plasma, plasma, UCN-01 10 mg/kg alone, 1 h, mean ± SD, n=3, read-out: plasma concentration): 240 ± 35 ng/mL | concentration at 1 h ([5]; spleen, spleen, UCN-01 10 mg/kg alone, 1 h, read-out: tissue concentration): 74900 ± 5170 ng/g | Kp at 1 h ([5]; spleen, spleen, UCN-01 + human AGP, 1 h, read-out: Tissue/Plasma ratio): 19.6 ± 14.7 | concentration at 1 h ([5]; spleen, spleen, UCN-01 + human AGP, 1 h, read-out: tissue concentration): 53300 ± 3120 ng/g | Kp at 1 h ([5]; spleen, spleen, UCN-01 alone, 1 h, read-out: Tissue/Plasma ratio): 326 ± 208 | distribution volume [6]: small distribution volume | half-life [6]: long half-life | plasma concentrations [6]: high plasma concentrations | systemic clearance [6]: Extremely low systemic clearance | IC50 (HMEC/E6 (p53-)): 1.4 nM
